These results are taken from ChEMBL document CHEMBL3714749, “Quinoxaline derivatives as gpr6 modulators” (2014).

As usually defined, the pIC50 is −log10 of the IC50, conventionally taken in molar units.

pIC50: −log10 of the molar value.

The target of the test is G-protein coupled receptor 6 (Homo sapiens, UniProt P46095). The test is described as follows: Activity at GPR6 (unknown origin) expressed in CHOK1 cells assessed as inhibition of constitutive cAMP activity incubated for 45 mins by HTRF based cAMP detection assay. The class given is functional, cell-based, CHO-K1.
Sequence of G-protein coupled receptor 6 (P46095 whole entry): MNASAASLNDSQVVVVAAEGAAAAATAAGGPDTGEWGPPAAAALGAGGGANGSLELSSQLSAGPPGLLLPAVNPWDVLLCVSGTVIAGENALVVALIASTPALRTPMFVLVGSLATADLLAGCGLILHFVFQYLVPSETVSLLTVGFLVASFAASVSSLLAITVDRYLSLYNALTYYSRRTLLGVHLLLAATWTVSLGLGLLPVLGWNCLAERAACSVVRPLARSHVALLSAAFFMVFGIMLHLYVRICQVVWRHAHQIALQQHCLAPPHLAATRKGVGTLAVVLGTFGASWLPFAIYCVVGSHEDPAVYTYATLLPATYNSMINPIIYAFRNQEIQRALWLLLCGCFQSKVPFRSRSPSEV
As to `Cc1ccc(S(=O)(=O)N2CCN(c3nc4cc(C#N)ccc4nc3NC3CC3)CC2)cc1`, the pIC50 is 5.32. To `N#Cc1ccc(Cl)c(C(=O)C2CCN(c3nc4cnc(Cl)cc4nc3NC3CC3)CC2)c1` belongs 7.05.

For the compound `CSc1ccc(OC2CCN(c3nc4cnncc4nc3NC3CC3)CC2)c(F)c1`, the pIC50 is 7.85. Then `COc1ccc(OC2CCN(c3nc4ccncc4nc3NC3CC3)CC2)c(F)c1`, with 7.36; and `Cc1c(Cl)cc(F)cc1S(=O)(=O)N1CCN(c2nc3cc(C#N)ccc3nc2NC2CC2)CC1`, with 6.02.

For the compound `O=C(c1c(Cl)ccc(F)c1F)C1CCN(c2nc3cnccc3nc2NC2CC2)CC1`, the pIC50 was 5.41.

As for `N#Cc1ccc2nc(NC3CCC3)c(N3CCN(C(=O)c4ccc(Cl)cc4)CC3)nc2c1`, the pIC50 was 6.52. To `O=C(c1ccc(C(F)F)cc1)N1CCN(c2nc3cnccc3nc2NC2CC2)CC1` belongs 5.58; to `O=C(c1cccs1)C1CCN(c2nc3cnccc3nc2NC2CC2)CC1`, 5.17. Then `CN(C)C(=O)c1cc2nc(NC3CC3)c(N3CCC([C@@H](F)c4ccc(F)cc4F)CC3)nc2cn1`, with 8.10. Then `N#Cc1ccc2nc(NC3CC3)c(N3CCN(S(=O)(=O)c4ccc(OC(F)(F)F)cc4)CC3)nc2c1`, with 5.37. Regarding `Cc1nccc2nc(NC3CC3)c(N3CCC(Cn4ccc(F)cc4=O)CC3)nc12`, the pIC50 was 6.42. Then `N#Cc1ccc(F)c(C(=O)C2CCN(c3nc4cnccc4nc3NC3CC3)CC2)c1`, with 7.16. For `Cc1cc2nc(NC3CC3)c(N3CCC(Cn4cc(Cl)ccc4=O)CC3)nc2cn1`, the pIC50 was 6.11.

Turning to `N#Cc1ccc2nc(N3CCC(C(F)c4ccc(F)cc4F)CC3)c(NC3CC3)nc2c1` (centres undefined), the pIC50 is 7.54. Regarding `CN(C)C(=O)c1cc2nc(NC3CC3)c(N3CCC(Oc4ccc(F)cc4F)CC3)nc2cn1`, the pIC50 is 8.30. Then `N#Cc1ccc2nc(NC3CC3)c(N3CCN(S(=O)(=O)c4ccccc4Br)CC3)nc2c1`, with 5.73; and `Fc1ccc(F)c(CN2CCN(c3nc4cnccc4nc3NC3CC3)CC2)c1`, with 6.92; and `N#Cc1ccccc1OC1CCN(c2nc3cnccc3nc2NC2CC2)CC1`, with 5.54. In the case of `COc1ccc(OC2CCN(c3nc4ccncc4nc3NC(C)C)CC2)c(F)c1`, the pIC50 was 7.92. With `Cc1cc2nc(NC3CC3)c(N3CCC(C(F)c4ccc(F)cc4F)CC3)nc2cn1` (centres undefined), the pIC50 is 8.15. To `CC(C)Nc1nc2cc(C(=O)N(C)C)ncc2nc1N1CCN(Cc2ccc(F)cc2F)CC1` belongs 7.40; to `COc1ccc(CN2CCN(c3nc4c(C#N)nccc4nc3NC3CC3)CC2)c(F)c1`, 7.06; to `Fc1ccc(Cl)cc1C(F)(F)C1CCN(c2nc3cnccc3nc2NC2CC2)CC1`, 7.34. Then `CC(C)Nc1nc2ccncc2nc1N1CCC(C(F)c2ccc(F)cc2F)CC1` (centres undefined), with 7.54; and `CCOc1ccc(OC2CCN(c3nc4cnccc4nc3NC3CC3)CC2)cc1`, with 5.99; and `N#Cc1cccc(OC2CCN(c3nc4cnccc4nc3NC3CC3)CC2)c1`, with 4.81. To `Fc1ccc(CC2CCN(c3nc4cnc(Cl)cc4nc3NC3CC3)CC2)c(F)c1` belongs 7.51; to `CN(C)C(=O)c1cc2nc(NC3CC3)c(N3CCN(C(=O)c4cc(F)ccc4Cl)CC3)nc2cn1`, 5.80. Consider `CC(O)c1ccc(OC2CCN(c3nc4cnccc4nc3NC3CC3)CC2)cc1` (centres undefined), for which the pIC50 is 5.22.

Consider `COCCNc1nc2ccc(C#N)cc2nc1N1CCC(C(F)c2ccc(F)cc2F)CC1` (centres undefined), for which the pIC50 was 6.47.

As for `CN(C)C(=O)c1cc2nc(NC3CC3)c(N3CCC([C@H](F)c4ccc(F)cc4F)CC3)nc2cn1`, the pIC50 is 8.00.

As to `N#Cc1ccc2nc(NC3CC3)c(N3CCN(S(=O)(=O)c4ccccc4C#N)CC3)nc2c1`, the pIC50 was 5.36. To `N#Cc1ccc2nc(NC3CC3)c(N3CCN(Cc4cc(F)ccc4F)CC3)nc2c1` belongs 6.42; to `N#Cc1cccc2nc(NC3CC3)c(N3CCN(Cc4cc(Cl)ccc4Cl)CC3)nc12`, 6.19; to `COCCNc1nc2ccncc2nc1N1CCC(Oc2ccc(F)cc2F)CC1`, 6.17. Turning to `O=C(c1cccnc1Br)C1CCN(c2nc3cnccc3nc2NC2CC2)CC1`, the pIC50 was 5.56. To `Cc1nccc2nc(NC3CC3)c(N3CCC(C(F)(F)c4cc(F)ccc4F)CC3)nc12` belongs 7.35; to `Fc1ccc(F)c(CN2CCN(c3nc4ccncc4nc3NC3CC3)CC2)c1`, 6.85; to `N#Cc1nccc2nc(NC3CC3)c(N3CCN(Cc4ccc(F)cc4F)CC3)nc12`, 7.18. Then `Cc1cc(S(=O)(=O)N2CCN(c3nc4cc(C#N)ccc4nc3NC3CC3)CC2)c(C)cc1Cl`, with 6.35; and `N#Cc1cccc(S(=O)(=O)N2CCN(c3nc4cc(C#N)ccc4nc3NC3CC3)CC2)c1`, with 5.60. For the compound `Fc1cc2nc(NC3CC3)c(N3CCN(Cc4cc(Cl)ccc4Cl)CC3)nc2cc1F`, the pIC50 is 6.10.

Take `N#Cc1ccc2nc(NC3CC3)c(N3CCN(S(=O)(=O)c4ccc(Br)s4)CC3)nc2c1`: the pIC50 is 6.38.

On to `N#Cc1ccc2nc(NC3CC3)c(N3CCN(S(=O)(=O)c4ccccc4F)CC3)nc2c1`, for which the pIC50 is 5.34. For the compound `CC(C)Nc1nc2ccc(C#N)cc2nc1N1CCC(C(F)c2cc(F)ccc2F)CC1` (centres undefined), the pIC50 is 7.01. To `CC(C)Nc1nc2cc(C(=O)N(C)C)ncc2nc1N1CCC(Oc2ccc(Cl)cc2F)CC1` belongs 8.22; to `COc1ccc(CC2CCN(c3nc4cnncc4nc3NC(C)C)CC2)c(F)c1`, 7.82; to `N#Cc1ccc(OC2CCN(c3nc4cnccc4nc3NC3CC3)CC2)cc1`, 5.71.

For the compound `COCCNc1nc2ccncc2nc1N1CCC(Cc2ccc(F)cc2F)CC1`, the pIC50 is 7.52.

Turning to `N#Cc1cc2nc(NC3CC3)c(N3CCC([C@H](F)c4ccc(F)cc4F)CC3)nc2cn1`, the negative-log IC50 (pIC50) is 7.96. `CC(=O)c1ccc(OC2CCN(c3nc4cnccc4nc3NC3CC3)CC2)cc1`: the pIC50 was 5.76. Regarding `Cc1ccccc1C(=O)C1CCN(c2nc3cnccc3nc2NC2CC2)CC1`, the pIC50 was 5.24. To `N#Cc1ccc2nc(NC3CC3)c(N3CCN(S(=O)(=O)c4cc(C(F)(F)F)ccc4Cl)CC3)nc2c1` belongs 5.87; to `FC(F)Oc1ccc(Cl)cc1CN1CCN(c2nc3cnccc3nc2NC2CC2)CC1`, 6.57. To `N#Cc1ccc2nc(NC3CC3)c(N3CCC(Cn4cc(Cl)ccc4=O)CC3)nc2c1` belongs 6.03; to `Fc1ccc(C(F)(F)C2CCN(c3nc4cnccc4nc3NC3CC3)CC2)c(F)c1`, 7.80; to `COc1cc2nc(NC3CC3)c(N3CCC(Cc4ccc(F)cc4F)CC3)nc2cn1`, 7.54. As for `COc1ccccc1C(=O)C1CCN(c2nc3cnccc3nc2NC2CC2)CC1`, the pIC50 is 5.72.

As to `CN(C)C(=O)c1cc2nc(NCC(F)F)c(N3CCC(Oc4ccc(F)cc4F)CC3)nc2cn1`, the pIC50 was 7.19. To `CC[C@@H](C)Nc1nc2cnncc2nc1N1CCC(Oc2ccc(OC)cc2F)CC1` belongs 7.52.

With `Fc1ccc(OC2CCN(c3nc4ccncc4nc3NC3CCC3)CC2)c(F)c1`, the pIC50 was 7.85.

For `N#Cc1cccc2nc(N3CCN(Cc4cc(Cl)ccc4Cl)CC3)c(NC3CC3)nc12`, the pIC50 was 5.83. Then `CSc1ccc(OC2CCN(c3nc4cnccc4nc3NC3CC3)CC2)cc1`, with 6.84.
